# Laboratory results: US6395909B1, “Substituted benzopyran derivatives and their use as anticonvulsants” (priority 1998, dated 2002)
# Tests used:
# [1] = system: electrically-induced seizures; assay: Maximal electroshock seizure threshold (MEST) test; type: in vivo; settings: rat, intravenous route, solution in 20% PEG, 1 mg/kg, tested 30 min post dosing
# Description: The maximal electroshock seizure threshold (MEST) test in rodents is particularly sensitive for detecting potential anticonvulsant properties^1. In this model, anticonvulsant agents elevate the threshold to electrically-induced seizures whilst proconvulsants lower the seizure threshold. Rats (naive male, Charles River, U.K. Sprague Dawley strain, 100-150 g) are randomly assigned to groups of 10-20 and dosed orally, intravenously or intraperitoneally at a dose volume of 1 ml/kg with various doses of compound (0.1-300 mg/kg) or vehicle. […] The mean current and standard error required to induce a tonic seizure in 50% (CC50) of the rats in a particular treatment group is determined by the ‘up and down’ method of Dixon and Mood (1948)^2. Statistical comparisons between vehicle- and drug-treated groups are made using the method of Litchfield and Wilcoxon (1949)^3. In control animals the CC50 is usually 20-30 mA. […] If a tonic convulsion does occur, then the current is decreased, and so on until all the animals in the group have been tested. The percentage increase or decrease in CC50 for each group compared to the control is calculated. Studies are carried out using a Hugo Sachs Electronik Constant Current Shock Generator with totally variable control of shock level from 0 to 300 mA and steps of 5-20 mA are usually used. […]
# [2] = target: novel receptor obtainable from rat forebrain tissue; assay: Radioligand binding assay, [3H]-Compound A displacement in rat forebrain tissue; settings: competition with [3H]-Compound A (usually 20 nM)
# Description: WO 92/22293 (SmithKline Beecham) discloses compounds having anti-convulsant activity, including inter alia the compound (3R, 4S)-6-acetyl-(4-fluorobenzoylamino)-3,4-dihydro-2,2-dimethyl-2H-1-benzopyran-3-ol (hereinafter referred to as Compound A). […] The affinity of test compounds to the novel receptor site is assessed as follows.
# Whole forebrain tissue is obtained from rats. The tissue is first homogenised in buffer (usually 50 mM Tris/HCl, pH 7.4). The homogenised tissue is washed by centrifugation and resuspension in the same buffer, then stored at −70° C. until used.
# To carry out the radioligand binding assay, aliquots of tissue prepared as above (usually at a concentration of 1-2 mg protein/ml) are mixed with aliquots of [3H]-Compound A dissolved in buffer. The final concentration of [3H]-Compound A in the mixture is usually 20 nM. The mixture is incubated at room temperature for 1 hour. [3H]-Compound A bound to the tissue is then separated from unbound [3H]-Compound A by filtration through Whatman GF/B glass fibre filters. The filters are then washed rapidly with ice-cold buffer. The amount of radioactivity bound to the tissue trapped on the filters is measured by addition of liquid scintillation cocktail to the filters followed by counting in a liquid scintillation counter. […]
melting point [°C],pKi value [2],SMILES,increase in seizure threshold relative to control [1] [%]
179.4,7.35,"CC1(C)Oc2ccc(C(=O)CO)cc2[C@H](NC(=O)c2cc(F)cc(F)c2)[C@H]1O [Example 1, (3R,4S)-4-(3,5-difluorobenzamido)-3,4-dihydro-2,2-dimethyl-3-hydroxy-6-(2-hydroxyacetyl)-2H-1-benzopyran]",317
216,–,"CC1(C)Oc2ccc(C(=O)CO)cc2[C@H](NC(=O)c2ccc(F)cc2)[C@H]1O [Example 3, (3R,4S)-4-(4-fluorobenzamido)-3,4-dihydro-2,2-dimethyl-3-hydroxy-6-(2-hydroxyacetyl)-2H-1-benzopyran]",–
